# According to US11224624B2, “Modulation of microbial synthesis of 4-etylphenol and 4-ethylphenyl sulfate in behavior and disease” (California Institute of Technology, priority 2017, dated 2022):
# Legend:
# [1] = 4EP to 4EPS conversion by cytosolic fractions from tissues of colonized mice; type: in vitro ADME, mouse; conditions: colon and liver cytosolic fractions of colonized mice, FIG. 11E
# Method: 4EP to 4EPS conversion was measured by cytosolic fractions from various tissues of colonized mice (FIG. 11E).
# wild-type mice = assay: Open field exploration and pre-pulse inhibition assays, wild-type mice injected with 4EPS (Example 1); type: in vivo, mouse; conditions: 30 mg/kg 4EPS potassium salt i.p. daily from 3 to 6 weeks of age vs saline, n=10/group
# Method: To measure effects of 4EPS on wild-type mice, the wild-type mice were injected intraperitoneally (i.p.) with saline or 30 mg/kg 4EPS potassium salt daily from 3 to 6 weeks of age. Anxiety-like behavior based on center duration (See FIG. 1B) and locomotor behavior (See […]) were measured in the open field exploration assay. n=10/group. Furthermore, the potentiated startle reflex was measured in the pre-pulse inhibition (PPI) assay, and measurements were taken of startle (Vmax) (FIG. 1C) and PPI % (FIG. 1D). n=10/group.
# Wildtype mice [2] = assay: Elevated plus maze, mice injected with 4EPS; type: in vivo, mouse; conditions: 30 mg/kg 4EPS potassium salt i.p. daily, 3 to 6 weeks of age, vs saline
# Method: (§1) Wildtype mice were injected intraperitoneally (i.p.) with saline or 30 mg/kg 4EPS potassium salt daily from 3 to 6 weeks of age and tested for anxiety in the elevated plus maze (FIG. 4A-C), light dark box (FIG. 4D-F), and open field arena (FIG. 4G-I) assays.
# Wildtype mice [3] = assay: Light dark box, mice injected with 4EPS; type: in vivo, mouse; conditions: 30 mg/kg 4EPS potassium salt i.p. daily, 3 to 6 weeks of age, vs saline
# Method: as §1
# Wildtype mice [4] = assay: Open field arena, mice injected with 4EPS; type: in vivo, mouse; conditions: 30 mg/kg 4EPS potassium salt i.p. daily, 3 to 6 weeks of age, vs saline
# Method: as §1
# [5] = molecular target: Sult1A1 (sulfotransferase family 1A member 1) (Homo sapiens, UniProt P50225); assay: R&D SYSTEMS sulfotransferase assay, Sult1A1 modification of 4EP to 4EPS; type: biochemical; conditions: in vitro, FIG. 11C
# Method: Using R&D SYSTEMS Universal Sulfotransferase Assay Kit™, sulfation of 4-ethylphenol (4EP) or para-cresol (PC) was determined colorimetrically (FIG. 11A). Samples from the assay were pooled and analyzed by liquid chromotography mass spectrometry (LCMS) for the confirmation that 4EPS and PCS are present (FIG. 11B).
# An R&D SYSTEMS assay was used to determine whether quercetin and curcumin can inhibit Sult1A1 (sulfotransferase family 1A member 1, an enzyme that catalyzes sulfate conjugation) modification of 4EP to 4EPS (FIG. 11C). […] Accordingly, it is contemplated that quercetin and curcumin in accordance with some embodiments herein can inhibit the production of 4EPS in a subject in need thereof.
# Chain of Sult1A1 (sulfotransferase family 1A member 1) (P50225 whole entry, species assumed): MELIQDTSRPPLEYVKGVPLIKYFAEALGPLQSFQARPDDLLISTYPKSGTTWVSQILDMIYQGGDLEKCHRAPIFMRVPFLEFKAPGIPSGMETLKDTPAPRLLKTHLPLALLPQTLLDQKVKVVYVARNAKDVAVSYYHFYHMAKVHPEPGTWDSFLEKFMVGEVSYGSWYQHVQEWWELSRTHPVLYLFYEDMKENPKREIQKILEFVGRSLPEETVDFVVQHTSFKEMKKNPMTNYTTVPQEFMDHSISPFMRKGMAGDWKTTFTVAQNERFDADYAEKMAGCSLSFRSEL
smiles,measurement,setting,value
"CCc1ccc(O)cc1 [4EP, 4-ethylphenol]",conversion of 4EP to 4EPS,[1],Substantial conversion
"CCc1ccc(OS(=O)(=O)[O-])cc1.[K+] [4EPS, 4-ethylphenyl sulfate]","anxiety behaviors (open field center duration, startle, PPI)",wild-type mice,significantly increased anxiety behaviors
same,duration in the open (elevated plus maze),Wildtype mice [2],decreased
same,total terminus duration (elevated plus maze),Wildtype mice [2],decreased
same,frequency in the light (light dark box),Wildtype mice [3],decreased
same,total duration in the light (light dark box),Wildtype mice [3],decreased
same,distance moved (open field arena),Wildtype mice [4],comparable to saline-injected mice
same,total duration in center (open field arena),Wildtype mice [4],decreased
COc1cc(/C=C/C(=O)CC(=O)/C=C/c2ccc(O)c(OC)c2)ccc1O [curcumin],inhibition of sulfation of 4EP,[5],inhibit
O=c1c(O)c(-c2ccc(O)c(O)c2)oc2cc(O)cc(O)c12 [quercetin],inhibition of sulfation of 4EP,[5],inhibit
